Several values for one entry are separate records, joined by “and”; a condition that tells them apart may be missing. Equal values may be shown once.
Legend:
[1] = test system: Aβ from post mortem human AD brain; assay: Assay 9 Human brain amyloid solubilisation assay; type: biochemical; parameters: key: (+): effective at solubilising plaques at more than 1 concentration relative to PBS; (−): not effective at solubilising plaques relative to PBS; conditions: relative to PBS
Experimental: Assay 9. Human Brain Amyloid Solubilisation Assay
This assay was performed in order to assess the ability of a test compound to mobilise Aβ from the insoluble to the soluble phase of an extract of tissue from post mortem human AD brain.
Up to 0.5 g of plaque-bearing cortex without meninges was homogenized using a DIAX 900 homogenizer (Heudolph and Co, Kelheim, Germany) or other suitable device for three 30-second periods at full speed in up to 2 ml of ice-cold phosphate-buffered saline, pH 7.4. To obtain the phosphate-buffered saline-extractable fraction, the homogenate was centrifuged at 100,000×g for 30 min and the supernatant removed. […]
Tris-Tricine polyacrylamide gel electrophoresis was performed by loading appropriately diluted samples on to 10% to 20% gradient gels (Novex, San Diego, Calif.) followed by transfer on to 0.2-μm nitrocellulose membrane (Bio-Rad, Hercules, Calif.). Aβ was detected by using monoclonal antibody W02, which detects residues 5 through 8, 17 (or another suitable antibody) in conjunction with horseradish peroxidase-conjugated rabbit anti-mouse IgG (Dako, Denmark), and visualized by using enhanced chemiluminescence (eg ECL; Amersham Life Science, Buckinghamshire, UK). […]
All samples were analysed several times, and gel loadings and dilutions were adjusted to fit within the quantifiable region of the standard curve. […]

[2] = Assay 16 Determination of mouse plasma levels of test compounds; type: in vivo; conditions: for Conc. in mouse plasma: oral 30 mg/kg
Description: [formula] [formula] [formula] • CLtotal=total plasma clearance after IV administration • Vdβ=volume of distribution during the elimination phase after IV administration • BA=oral bioavailability • AUCIV=area under the plasma concentration versus time profile from time zero to infinity after IV administration • AUCoral=area under the plasma concentration versus time profile from time zero to infinity after oral administration • β=terminal elimination rate constant after IV administration Assay 16 Determination of Mouse Plasma Levels of Test Compounds PBT 1061
(§1) Oral administration of PBT 1061 at 30 mg/kg, as a suspension in Na-Carboxymethyl Cellulose (CMC) was administered by oral gavage to four mice. Two mice were sacrificed 30 minutes after administration and two mice were sacrificed 60 minutes after administration. Blood was obtained by cardiac puncture and plasma separated by centrifugation.
The concentration of PBT1061 was determined by LC/MS using the ZQ instrument. The mobile phase consisted of an acetonitrile (ACN)/water gradient (containing 0.05% Formic acid) and the column was a Phenomenex Polar-RP […] 80A (50×2 mm) column.
The mouse plasma samples were directly injected following a protein precipitation with ACN. The analytical method in plasma was linear in the range of 125 to 10,000 ng/ml (R^2=0.9992). Diazepam was used as the internal standard. Recovery of PBT1061 from plasma was ˜100%.
as §1, with “1063” for “1061”
The concentration of PBT1063 was determined by LC/MS using the single quadrupole instrument. The mobile phase consisted of an acetonitrile (ACN)/water gradient (containing 0.05% Formic acid) and the column was a Phenomenex C8 4 μm 80A (50×2 mm) column.
The supplied acute toxicity mouse plasma samples (delivered Feb. 9, 2003) were directly injected following a protein precipitation with ACN. Concentrations were determined by comparison to a calibration curve prepared in rat plasma. The analytical method in plasma was linear in the range of 312 to 10,000 ng/ml (R^2=0.9976). Diazepam was used as the internal standard. Recovery of PBT1063 from plasma was ˜42.9%.

| Conc. in mouse plasma ([2]; 30 min, individual mouse) | Conc. in mouse plasma ([2]; 60 min, individual mouse) | concentration at 30 min ([2]; mouse, plasma, po, 30 mg/kg, 30 min, individual mouse (Table 2), read-out: Conc. in mouse plasma) [µg/mL] | concentration at 60 min ([2]; mouse, plasma, po, 30 mg/kg, 60 min, individual mouse (Table 2), read-out: Conc. in mouse plasma) [µg/mL] | Conc. in mouse plasma ([2]; 30 min, individual mouse (Table 2)) [µg/mL] | Conc. in mouse plasma ([2]; 60 min, individual mouse (Table 2)) [µg/mL] | SMILES | Assay 9 Brain amyloid solubilisation [1] |
| --- | --- | --- | --- | --- | --- | --- | --- |
| 1.82661 µg/mL and 5.47588 µg/mL | 2.41755 µg/mL and 1.11524 µg/mL | – | – | – | – | O=c1c2c(Cl)cc(Cl)c(O)c2ncn1C1CC1 [PBT-1061, 5,7-Dichloro-3-cyclopropyl-8-hydroxy-3H-quinazolin-4-one] | (+) |
| – | – | 0.413 | 0.331 | 0.27939 | 0.43949 | O=c1c(-c2ccc(Cl)cc2)cnc2c(O)c(I)ccn12 [PBT-1063, 3-(4-Chlorophenyl)-9-hydroxy-8-iodopyrido[1,2-a]pyrimidin-4-one] | – |
| – | – | – | – | – | – | Oc1c(N2CCOCC2)ncc2cccnc12 [PBT-1053, 7-Morpholin-4-yl-[1,6]naphthyridin-8-ol] | (+) |

Reference: US7692011B2, “8-hydroxy and 8-mercapto quinazolinones” (Prana Biotechnology Limited, priority 2002, dated 2010)
